Results from patent publication US6001389A, “Compositions containing biologically active silicon” (priority 1997, dated 1999).

Legend:
desquamine = assay: desquamine-like activity of an epidermic extract (hydrolysis of synthetic specific substrate of tPA); assay type: biochemical
Procedure: Effect of a diethylphosphatoethyltrisilanol's precursor, the diethylphosphatoethyltriethoxysilane, on the "desquame-like" activity of an epidermic extract.
Desquamine is obtained from an epidermic extract according to the Brysk and al (1994) method. The desquamine activity is evaluated by its ability to hydrolyze the synthetic specific substrate of the tPA for which it has a very strong affinity.

[1] = tested on: collagenase type activity of human chondrocytes; assay: collagenase type enzymatic activity of human chondrocytes culture (Cawston and Barrett method); assay type: cell-based; conditions: no IL-1
Procedure: Effect of a diethylphosphatoethyltrisilanol's precursor, the diethylphosphatoethyltriethoxysilane, on the collagenase type activity of human chondrocytes culture.
(§1) Chondrocytes cultures are carried out from human cartilages sampled on cadavers 12 hours after the death. In aqueous buffered medium (pH 7.0-7.4), the diethylphosphatoethyltriethoxysilane releases the corresponding diethylphosphatoethyltrisilanol, which is the active silanol. The collagenase type enzymatic activity of these chondrocytes cultures is quantified following the Cawston and Barrett method.

[2] = tested on: collagenase type activity of human chondrocytes; assay: collagenase type enzymatic activity of human chondrocytes cultures after IL-1 induction (Cawston and Barrett method); assay type: cell-based; conditions: after IL-1 treatment
Procedure: Effect of a diethylphosphatoethyltrisilanol's precursor, the diethylphosphatoethyltriethoxysilane, on the collagenase type activity of human chondrocytes cultures after IL-1 induction.
as §1, with “method after previous treatment of the cultures by IL-1.” for “method.”

[3] = tested on: stromelysine type activity of human chondrocytes; assay: stromelysine type enzymatic activity of human chondrocytes culture (digestion of casein coupled with resorufine); assay type: cell-based; conditions: no IL-1
Procedure: Effect of a diethylphosphatoethyltrisilanol's precursor, the diethylphosphatoethyltriethoxysilane, on the stromelysine type activity of human chondrocytes culture.
as §1, with “stromelysine” for “collagenase”, “by” for “following”, “method of digestion of casein coupled with resorufine.” for “Cawston and Barrett method.”

[4] = tested on: stromelysine type activity of human chondrocytes; assay: stromelysine type enzymatic activity of human chondrocytes culture after IL-1 induction (digestion of casein coupled with resorufine); assay type: cell-based; conditions: after IL-1 treatment
Procedure: Effect of a diethylphosphatoethyltrisilanol's precursor, the diethylphosphatoethyltriethoxysilane, on the stromelysine type activity of human chondrocytes culture after IL-1 induction.
as §1, with “Human chondrocytes” for “Chondrocytes”, “stromelysine” for “collagenase”, “quantified, after previous treatment of cultures with IL-1, by” for “quantified following”, “method of digestion of casein coupled with resorufine.” for “Cawston and Barrett method.”

[5] = tested on: osteoblasts alkaline phosphatase; assay: synthetic activity of osteoblasts (alkaline phosphatase activity); assay type: cell-based, human
Procedure: Effect of a diethylphosphatoethyltrisilanol's precursor, the diethylphosphatoethyltriethoxysilane, on the synthetic activity of osteoblasts.
(§2) Osteoblasts cultures are carried out from human bones sampled on cadavers 12 hours after the death. In aqueous buffered medium (pH 7.0-7.4), the diethylphosphatoethyltriethoxysilane releases the corresponding diethylphosphatoethyltrisilanol, which is the active silanol. The synthetic activity of these osteoblasts is quantified by the measure of the alkaline phosphatase activity.

IL-6 of osteoblasts = assay: IL-6 level of osteoblasts (ELISA); assay type: cell-based, human
Procedure: Effect of a diethylphosphatoethyltrisilanol's precursor, the diethylphosphatoethyltriethoxysilane, on the IL-6 activity of osteoblasts.
as §2, with “IL-6” for “The synthetic activity of these osteoblasts”, “ELISA technique.” for “measure of the alkaline phosphatase activity.”

[6] = tested on: chymotrypsine-like activity of epidermic extract; assay: chymotrypsine-like activity of an epidermic extract (BTEE degradation); assay type: biochemical
Procedure: Effect of a diethylphosphatoethyltrisilanol's precursor, the diethylphosphatoethyltriethoxysilane, on the chymotrypsine type activity of an epidermic extract.
After sampling from a cutaneous tissue, the epidermis is cut then put in an appropriate buffered solution. The solution is homogenized with Ultra Turax (40 C.) until a satisfying epidermic extract is obtained. The chymotrypsine-like activity of this extract is assessed by the measure of the N alpha-Benzoyl-L-Tyrosine Ethyl Ester (BTEE) degradation (specific synthetic substrate).

Row | Compound | effect on "desquamine-like" activity of the epidermic extract, in words (desquamine) | inhibition of the "desquamine-like" activity of the epidermic extract (desquamine; 300 μg/ml) [%] | inhibition of "collagenase-like" activity of the chondrocytes ([1]; 500 μg/ml) [%] | effect on "collagenase-like" activity of the chondrocytes, in words [1] | inhibition of "collagenase-like" activity of the chondrocytes ([2]; 500 μg/ml) [%] | effect on "collagenase-like" activity of the chondrocytes, in words [2] | inhibition of "collagenase-like" activity of the chondrocytes (stromelysine type activity test) ([3]; 500 μg/ml) [%] | effect on "collagenase-like" activity of the chondrocytes (stromelysine type activity test), in words [3] | inhibition of "collagenase-like" activity of the chondrocytes (stromelysine type activity test) ([4]; 500 μg/ml) [%] | effect on "collagenase-like" activity of the chondrocytes (stromelysine type activity test), in words [4] | effect on osteoblasts alkaline phosphatases activity, in words [5] | increase of the osteoblasts alkaline phosphatases activity (printed "inhibition") ([5]; 100 μg/ml) | effect on osteoblasts IL-6 level, in words (IL-6 of osteoblasts) | decrease of the osteoblasts IL-6 level (inhibition) (IL-6 of osteoblasts; 100 μg/ml) [%] | effect on "chymotrypsine-like" activity of the epidermic extract, in words [6] | inhibition of "chymotrypsine-like" activity of the epidermic extract ([6]; 400 μg/ml (printed 400 μ0 g/ml)) [%]
1 | C[Si](O)(O)O [CH3 Si(OH)3] | dose-dependent inhibition | 25 | – | – | – | – | – | – | – | – | – | – | – | – | – | –
2 | CCOP(=O)(CC[Si](O)(O)O)OCC [diethylphosphatoethyltrisilanol] | – | – | 30 | dose-dependent decrease | 21 | dose-dependent decrease | 37 | dose-dependent decrease | 18 | dose-dependent decrease | dose-dependent increase | +24% | dose-dependent decrease | -49 | dose-dependant decrease | 27
